Molecules are shown by their SMILES. A value given as a limit tells only on which side of the number the result lay.

The values below come from patent US20240424111A1, “Degrader Compounds and Uses Thereof” (CALICO LIFE SCIENCES LLC, priority 2021, published 2024).

For test [1], the target named is T1, PTPN2 (Homo sapiens, UniProt P17706).
T1 construct: expressed in transfected cells; host or cells: 293T.109 (HiBiT-PTPN2), derived from 293T WT (ATCC)
T1 sequence (P17706 1-415): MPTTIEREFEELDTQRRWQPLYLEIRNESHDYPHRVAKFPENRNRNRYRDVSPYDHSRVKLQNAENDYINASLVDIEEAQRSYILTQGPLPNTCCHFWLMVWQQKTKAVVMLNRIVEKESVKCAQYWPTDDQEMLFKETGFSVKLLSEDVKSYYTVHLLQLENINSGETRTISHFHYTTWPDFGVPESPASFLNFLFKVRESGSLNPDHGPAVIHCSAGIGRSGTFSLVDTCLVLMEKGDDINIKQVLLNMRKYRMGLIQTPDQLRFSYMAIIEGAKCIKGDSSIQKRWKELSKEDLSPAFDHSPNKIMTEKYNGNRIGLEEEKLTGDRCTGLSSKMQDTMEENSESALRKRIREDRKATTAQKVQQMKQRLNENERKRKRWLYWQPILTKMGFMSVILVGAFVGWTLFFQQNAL
The test can be described thus: HiBiT PTPN2 degradation in 293T.109 (HiBiT-PTPN2) cells, 24 hours. The test is classed as cell-based. The settings on record: 293T.109 cells. The gist of the method: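 293T cells stably expressing N-terminal HiBiT-tagged PTPN2 were treated for 24 h at 37 °C with compound in an 11-point half-log series from 10 μM top concentration, in duplicate. Remaining HiBiT-PTPN2 was measured by lytic luminescence, with untreated cells as the negative control and wells without lytic reagent as the positive control.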
For orientation: With HiBiT, luminescence reflects the tagged protein that the partner subunit can reach.

Test [2] addresses T2, PTPN2 (Mus musculus, UniProt Q06180).
T2 construct: HiBiT; host or cells: B16F10.4
T2 sequence (Q06180 1-406): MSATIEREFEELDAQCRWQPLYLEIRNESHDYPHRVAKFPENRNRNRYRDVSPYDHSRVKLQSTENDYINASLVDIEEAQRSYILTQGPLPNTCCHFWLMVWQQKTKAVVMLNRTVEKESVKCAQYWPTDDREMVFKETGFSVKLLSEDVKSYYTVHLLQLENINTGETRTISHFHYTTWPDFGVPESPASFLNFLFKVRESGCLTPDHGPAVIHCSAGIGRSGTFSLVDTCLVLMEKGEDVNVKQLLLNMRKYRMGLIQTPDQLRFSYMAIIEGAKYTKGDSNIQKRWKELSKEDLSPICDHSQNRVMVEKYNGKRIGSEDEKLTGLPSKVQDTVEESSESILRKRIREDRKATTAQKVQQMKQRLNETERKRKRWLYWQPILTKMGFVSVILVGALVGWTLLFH
The test can be described thus: HiBiT PTPN2 degradation in B16F10.4 cells, 24 hours. The test is classed as cell-based. The gist of the method: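 PTPN2 degradation was measured via luminescence from the Nano-Glo® HiBiT Lytic Assay kit. Compounds were dispensed into 384-well plates at an 11-point half-log titration in duplicate, starting at 10 μM. Cells were added at 5000 per well and held at 37° C. with 5% CO2 for 24 hours. Untreated cells were the negative control and cells without lytic reagent the positive control. Lytic reagents were then added and luminescence read on an EnVision™ Multilabel Reader.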

The term DC50 denotes the concentration at which degradation of the target reaches its halfway point. High values mean a less potent degrader, low ones a more potent degrader. In the case of `Cc1nn(C2CCC(=O)NC2=O)c2ccc(C3CCN(CC(=O)Nc4ccc5c(F)c(N6CC(=O)NS6(=O)=O)c(O)cc5c4)CC3)cc12` (stereo not drawn) [Degrader 100], the figures for the DC50 at PTPN2 [1] and at PTPN2 [2] were less than 0.05 µM and 0.15 to 0.5 µM, respectively.
The matching figures for `Cc1nn(C2CCC(=O)NC2=O)c2ccc(N3CCC(CC(=O)Nc4ccc5c(F)c(N6CC(=O)NS6(=O)=O)c(O)cc5c4)CC3)cc12` (stereo not drawn) [Degrader 101]: not below 0.5 µM and not below 0.5 µM.
The matching figures for `Cn1c(=O)n(C2CCC(=O)NC2=O)c2ccc(C3CCN(C4CC(C(=O)Nc5ccc6cc(N7CC(=O)NS7(=O)=O)ccc6c5)C4)CC3(F)F)cc21` (stereo not drawn) [Degrader 102]: 0.05 to 0.15 µM and 0.05 to 0.15 µM.
The matching figures for `C[C@H](C(=O)Nc1ccc2c(F)c(N3CC(=O)NS3(=O)=O)c(O)cc2c1)N1CCC(c2ccc3c(c2)n(C)c(=O)n3C2CCC(=O)NC2=O)CC1` (stereo partly drawn) [Degrader 103]: less than 0.05 µM and not below 0.5 µM.
`C[C@H](C(=O)Nc1ccc2c(F)c(N3CC(=O)NS3(=O)=O)c(O)cc2c1)C1CCN(c2ccc3c(c2)n(C)c(=O)n3C2CCC(=O)NC2=O)CC1` (stereo partly drawn) [Degrader 105]: the DC50 on PTPN2 [1] and on PTPN2 [2] was 0.15 to 0.5 µM each time.
For the compound `C[C@@H](C(=O)Nc1ccc2c(F)c(N3CC(=O)NS3(=O)=O)c(O)cc2c1)C1CCN(c2ccc3c(c2)n(C)c(=O)n3C2CCC(=O)NC2=O)CC1` (stereo partly drawn) [Degrader 106], the DC50 on PTPN2 [1] and at PTPN2 [2] was 0.15 to 0.5 µM each time.
Regarding `Cn1c(=O)n(C2CCC(=O)NC2=O)c2ccc(Nc3ccn(CC(=O)Nc4ccc5c(F)c(N6CC(=O)NS6(=O)=O)c(O)cc5c4)n3)cc21` (stereo not drawn) [Degrader 107], the DC50 on PTPN2 [1] and on PTPN2 [2] was 0.05 to 0.15 µM each time.
As to `Cn1c(=O)n(C2CCC(=O)NC2=O)c2ccc(-c3ccc(NCC4CC4C(=O)Nc4ccc5c(F)c(N6CC(=O)NS6(=O)=O)c(O)cc5c4)cc3)cc21` (stereo not drawn) [Degrader 108], the DC50 on PTPN2 [1] and at PTPN2 [2] was 0.05 to 0.15 µM throughout.
With `Cn1c(=O)n(C2CCC(=O)NC2=O)c2ccc(N3[C@@H]4CC[C@H]3C[C@@H](CC(=O)Nc3ccc5c(F)c(N6CC(=O)NS6(=O)=O)c(O)cc5c3)C4)cc21` (stereo partly drawn) [Degrader 109], the DC50 at PTPN2 [1] and at PTPN2 [2] was 0.15 to 0.5 µM throughout.
As to `Cn1c(=O)n(C2CCC(=O)NC2=O)c2ccc(N3[C@@H]4CC[C@H]3C[C@H](CC(=O)Nc3ccc5c(F)c(N6CC(=O)NS6(=O)=O)c(O)cc5c3)C4)cc21` (stereo partly drawn) [Degrader 110], the values for the DC50 on PTPN2 [1] and on PTPN2 [2] were 0.05 to 0.15 µM and 0.15 to 0.5 µM, respectively.
Consider `Cn1c(=O)n(C2CCC(=O)NC2=O)c2ccc([C@@H]3CCN(CC(=O)Nc4ccc5c(F)c(N6CC(=O)NS6(=O)=O)c(O)cc5c4)C[C@H]3O)cc21` (stereo partly drawn) [Degrader 111], for which the DC50 on PTPN2 [1] is less than 0.05 µM; at PTPN2 [2], 0.05 to 0.15 µM.
`Cn1c(=O)n(C2CCC(=O)NC2=O)c2ccc([C@H]3CCN(CC(=O)Nc4ccc5c(F)c(N6CC(=O)NS6(=O)=O)c(O)cc5c4)C[C@@H]3O)cc21` (stereo partly drawn) [Degrader 112]: the results for the DC50 on PTPN2 [1] and on PTPN2 [2] were less than 0.05 µM and 0.05 to 0.15 µM, respectively.
Consider `Cn1c(=O)n(C2CCC(=O)NC2=O)c2ccc(C3CCN(CC(=O)Nc4ccc5c(F)c(N6CC(=O)NS6(=O)=O)c(O)cc5c4)CC3=O)cc21` (stereo not drawn) [Degrader 113], for which the DC50 at PTPN2 [1] was 0.05 to 0.15 µM; on PTPN2 [2], 0.15 to 0.5 µM.
For the compound `Cn1c(=O)n(C2CCC(=O)NC2=O)c2ccc(N3CCC(O)(CC(=O)N4CC[C@@H](c5ccc6cc(O)c(N7CC(=O)NS7(=O)=O)c(F)c6c5)C4)CC3)cc21` (stereo partly drawn) [Degrader 114], the DC50 at PTPN2 [1] and at PTPN2 [2] was not below 0.5 µM throughout.
In the case of `Cn1c(=O)n(C2CCC(=O)NC2=O)c2ccc(N3CCC(O)(CC(=O)N4CC[C@H](c5ccc6cc(O)c(N7CC(=O)NS7(=O)=O)c(F)c6c5)C4)CC3)cc21` (stereo partly drawn) [Degrader 115], the DC50 at PTPN2 [1] and at PTPN2 [2] was 0.15 to 0.5 µM in each case.
With `Cn1c(=O)n(C2CCC(=O)NC2=O)c2ccc(C3CCN(CC(=O)N4CC[C@H](Oc5ccc6cc(O)c(N7CC(=O)NS7(=O)=O)c(F)c6c5)C4)CC3(F)F)cc21` (stereo partly drawn) [Degrader 116], the DC50 on PTPN2 [1] and at PTPN2 [2] was not below 0.5 µM in each case.
As to `Cn1c(=O)n(C2CCC(=O)NC2=O)c2ccc(C3CCN(CC(=O)N4CC[C@@H](Oc5ccc6cc(O)c(N7CC(=O)NS7(=O)=O)c(F)c6c5)C4)CC3(F)F)cc21` (stereo partly drawn) [Degrader 117], the DC50 on PTPN2 [1] and on PTPN2 [2] was not below 0.5 µM each time.
With `Cn1c(=O)n(C2CCC(=O)NC2=O)c2ccc(N3CCC(C(C)(C)C(=O)Nc4ccc5c(F)c(N6CC(=O)NS6(=O)=O)c(O)cc5c4)CC3)cc21` (stereo not drawn) [Degrader 118], the DC50 on PTPN2 [1] was not below 0.5 µM; on PTPN2 [2], 0.15 to 0.5 µM.
The corresponding values for `Cn1c(=O)n(C2CCC(=O)NC2=O)c2ccc(N3CCc4cc(CC(=O)Nc5ccc6c(F)c(N7CC(=O)NS7(=O)=O)c(O)cc6c5)ccc43)cc21` (stereo not drawn) [Degrader 119] are 0.15 to 0.5 µM and 0.05 to 0.15 µM.
On to `Cn1c(=O)n(C2CCC(=O)NC2=O)c2ccc(-n3ccc4cc(CC(=O)Nc5ccc6c(F)c(N7CC(=O)NS7(=O)=O)c(O)cc6c5)ccc43)cc21` (stereo not drawn) [Degrader 120], for which the results for the DC50 on PTPN2 [1] and at PTPN2 [2] were 0.15 to 0.5 µM and 0.05 to 0.15 µM, respectively.
The corresponding values for `C[C@H]1CC(c2ccc3c(c2)n(C)c(=O)n3C2CCC(=O)NC2=O)CCN1CC(=O)Nc1ccc2c(F)c(N3CC(=O)NS3(=O)=O)c(O)cc2c1` (stereo partly drawn) [Degrader 121] are less than 0.05 µM and 0.05 to 0.15 µM.
The corresponding values for `Cn1c(=O)n(C2CCC(=O)NC2=O)c2cnc(-c3ccc(CC(=O)Nc4ccc5c(F)c(N6CC(=O)NS6(=O)=O)c(O)cc5c4)cc3)cc21` (stereo not drawn) [Degrader 122] are not below 0.5 µM and 0.15 to 0.5 µM.
The corresponding values for `Cn1c(=O)n(C2CCC(=O)NC2=O)c2ccc([C@@H]3CCN(CC(=O)Nc4ccc5c(F)c(N6CC(=O)NS6(=O)=O)c(O)cc5c4)C3)cc21` (stereo partly drawn) [Degrader 124] are less than 0.05 µM and 0.15 to 0.5 µM.
For `Cn1cc(N2CCC(=O)NC2=O)c2cc(F)c(-c3ccc(CC(=O)Nc4ccc5c(F)c(N6CC(=O)NS6(=O)=O)c(O)cc5c4)cc3)cc21` [Degrader 125], the DC50 at PTPN2 [1] and on PTPN2 [2] was 0.15 to 0.5 µM each time.
Regarding `C[C@H]1CN(c2ccc3c(c2)n(C)c(=O)n3C2CCC(=O)NC2=O)CC[C@H]1CC(=O)Nc1ccc2c(F)c(N3CC(=O)NS3(=O)=O)c(O)cc2c1` (stereo partly drawn) [Degrader 126], the DC50 on PTPN2 [1] and at PTPN2 [2] was 0.05 to 0.15 µM each time.
As to `C[C@@H]1CN(c2ccc3c(c2)n(C)c(=O)n3C2CCC(=O)NC2=O)CC[C@@H]1CC(=O)Nc1ccc2c(F)c(N3CC(=O)NS3(=O)=O)c(O)cc2c1` (stereo partly drawn) [Degrader 127], the DC50 at PTPN2 [1] and on PTPN2 [2] was 0.05 to 0.15 µM throughout.
As to `O=C1CCC(c2ccc(C3CCN(CC(=O)Nc4ccc5c(F)c(N6CC(=O)NS6(=O)=O)c(O)cc5c4)CC3)cc2)C(=O)N1` (stereo not drawn) [Degrader 128], the DC50 at PTPN2 [1] was 0.15 to 0.5 µM; on PTPN2 [2], not below 0.5 µM.
As for `Cn1nc(N2CCC(=O)NC2=O)c2cc(F)c(N3CCC(CC(=O)Nc4ccc5c(F)c(N6CC(=O)NS6(=O)=O)c(O)cc5c4)CC3)cc21` [Degrader 129], the results for the DC50 at PTPN2 [1] and at PTPN2 [2] were 0.05 to 0.15 µM and 0.15 to 0.5 µM, respectively.
The corresponding values for `CCn1c(=O)n(C2CCC(=O)NC2=O)c2ccc([C@@H]3CCN(CC(=O)Nc4ccc5c(F)c(N6CC(=O)NS6(=O)=O)c(O)cc5c4)C[C@H]3F)cc21` (stereo partly drawn) [Degrader 131] are 0.15 to 0.5 µM and not below 0.5 µM.
With `C[C@@H]1CN(c2ccc3c(c2)n(C)c(=O)n3C2CCC(=O)NC2=O)CC[C@H]1CC(=O)Nc1ccc2c(F)c(N3CC(=O)NS3(=O)=O)c(O)cc2c1` (stereo partly drawn) [Degrader 132], the DC50 on PTPN2 [1] and at PTPN2 [2] was 0.05 to 0.15 µM in each case.
Consider `C[C@H]1CN(c2ccc3c(c2)n(C)c(=O)n3C2CCC(=O)NC2=O)CC[C@@H]1CC(=O)Nc1ccc2c(F)c(N3CC(=O)NS3(=O)=O)c(O)cc2c1` (stereo partly drawn) [Degrader 133], for which the DC50 at PTPN2 [1] and at PTPN2 [2] was 0.05 to 0.15 µM throughout.
On to `Cn1nc(N2CCC(=O)NC2=O)c2cc(F)c(N3CCC(CC(=O)Nc4ccc5c(F)c(N6CC(=O)NS6(=O)=O)c(O)cc5c4)CC3)cc21` [Degrader 134], for which the DC50 lay in the range of 0.05 to 0.15 µM on PTPN2 [1] and 0.15 to 0.5 µM on PTPN2 [2].
Turning to `Cn1c(=O)n(C2CCC(=O)NC2=O)c2cccc(N3CCC[C@@H](OCC(=O)Nc4ccc5c(F)c(N6CC(=O)NS6(=O)=O)c(O)cc5c4)C3)c21` (stereo partly drawn) [Degrader 135], the DC50 on PTPN2 [1] and at PTPN2 [2] was not below 0.5 µM throughout.
